Measured values taken from ChEMBL document CHEMBL1201862, “PubChem BioAssay data set” (2004).
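Interpolation was linear, between the two tested concentrations surrounding the appropriate level; five concentrations were tested over 48 hours in 96-well plates. GI50: concentration for 50% inhibition of growth.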 Calls of active or inactive are those of the source. Cut-off read from the data, not from the text of the source: active = GI50 up to about 1.1 µM and inactive = higher.

Assays:
Test in all cases: DTP human tumour cell line panel, 48 h
786-0 = test system: 786-0
A549 = test system: A549
ACHN = test system: ACHN
COLO 205 = test system: COLO 205
DMS-273 = test system: DMS-273
HOP-92 = test system: HOP-92
IGROV-1 = test system: IGROV-1
KM-20L2 = test system: KM-20L2
NCI-H522 = test system: NCI-H522
SF-268 = test system: SF-268
SF-295 = test system: SF-295
SK-MEL-2 = test system: SK-MEL-2
SR = test system: SR
UACC-257 = test system: UACC-257
RXF 393 = test system: RXF 393
SNB-78 = test system: SNB-78
A498 = test system: A498
BT-549 = test system: BT-549
MDA-N = test system: MDA-N
NCI/ADR-RES = test system: NCI/ADR-RES

Row | SMILES | GI50 (786-0) | GI50 (A549) | GI50 (ACHN) | GI50 (COLO 205) | GI50 (DMS-273) | GI50 (HOP-92) | GI50 (IGROV-1) | GI50 (KM-20L2) | GI50 (NCI-H522) | GI50 (SF-268) | GI50 (SF-295) | GI50 (SK-MEL-2) | GI50 (SR) | GI50 (UACC-257) | GI50 (RXF 393) | GI50 (SNB-78) | GI50 (A498) | GI50 (BT-549) | GI50 (MDA-N) | GI50 (NCI/ADR-RES)
1 | O=C(c1ccccc1)c1c(CC(O)c2ccncc2)n(C(=O)c2ccccc2)c2ccccc12 (configuration not stated) | 17 µM (inactive) | 17.8 µM (inactive) | 20.2 µM (inactive) | 17.9 µM (inactive) | 17.9 µM (inactive) | 15 µM (inactive) | 16.7 µM (inactive) | 17.7 µM (inactive) | 13.2 µM (inactive) | 20.7 µM (inactive) | 12.1 µM (inactive) | 16 µM (inactive) | 16.6 µM (inactive) | 17.5 µM (inactive) |  |  |  |  |  | 
2 | C=CCN1C(=O)NC(=O)/C(=C/c2c3ccccc3cc3ccccc23)C1=O |  | 21 µM (inactive) |  | 19.9 µM (inactive) | 20.8 µM (inactive) | 20.4 µM (inactive) | > 10 µM (inactive) |  | 20.2 µM (inactive) | 24.5 µM (inactive) | 17.4 µM (inactive) | 19.6 µM (inactive) | 23.9 µM (inactive) |  | 15.3 µM (inactive) | 21.1 µM (inactive) |  |  |  | 
3 | CC1=C2N3C[C@@H](n4c(=O)n(C)c(=O)n43)C23CCC1n1c(=O)n(C)c(=O)n13 | 35.6 µM (inactive) |  | > 100 µM (inactive) | 48 µM (inactive) | 38.6 µM (inactive) |  | > 100 µM (inactive) | > 100 µM (inactive) |  | > 100 µM (inactive) | > 100 µM (inactive) |  |  | > 100 µM (inactive) |  | > 100 µM (inactive) | > 100 µM (inactive) |  |  | 
4 | CN(C(=O)c1ccco1)C(=S)N1CCN(c2ccccn2)CC1 | > 100 µM (inactive) | > 100 µM (inactive) | > 100 µM (inactive) | > 100 µM (inactive) | > 100 µM (inactive) | > 100 µM (inactive) | > 100 µM (inactive) | > 100 µM (inactive) | > 100 µM (inactive) | > 100 µM (inactive) | > 100 µM (inactive) | > 100 µM (inactive) |  | > 100 µM (inactive) | > 100 µM (inactive) | > 100 µM (inactive) |  |  |  | 
5 | CC(=O)Oc1c(C)c2c(c3ccccc13)OC(C)(C)C2 | 15.3 µM (inactive) | 18.1 µM (inactive) | 17.3 µM (inactive) | 20.3 µM (inactive) |  | 17.8 µM (inactive) | 17.2 µM (inactive) |  | 18.4 µM (inactive) | 15.5 µM (inactive) | 17 µM (inactive) | 18 µM (inactive) | 17.7 µM (inactive) | 12.2 µM (inactive) | 20.7 µM (inactive) |  | 20.9 µM (inactive) | 24.7 µM (inactive) | 12 µM (inactive) | 21 µM (inactive)
6 | COc1ccc2c(c1)CCCN2S(=O)(=O)c1ccccc1[N+](=O)[O-] | 58.5 µM (inactive) | 53.7 µM (inactive) | 41.1 µM (inactive) | 40.6 µM (inactive) |  | 42.6 µM (inactive) | 34.3 µM (inactive) |  | 26.7 µM (inactive) | 49.5 µM (inactive) | 30.5 µM (inactive) | 22.5 µM (inactive) | 11.1 µM (inactive) | 71.9 µM (inactive) | 25.6 µM (inactive) |  | 33.4 µM (inactive) | 9.06 µM (inactive) | 3.73 µM (inactive) | 19.2 µM (inactive)
7 | CCC/C(Cl)=N/OC(=O)Nc1cc(C(F)(F)F)ccc1OC | 6.05 µM (inactive) | 19.5 µM (inactive) | 13.2 µM (inactive) | 1.95 µM (inactive) |  | 2.43 µM (inactive) | 16.6 µM (inactive) |  | 1.56 µM (inactive) | 16.1 µM (inactive) | 18.3 µM (inactive) | 16.1 µM (inactive) | 2.79 µM (inactive) | 16.5 µM (inactive) | 6.31 µM (inactive) |  | 15.1 µM (inactive) | 15.5 µM (inactive) | 12.1 µM (inactive) | 17.5 µM (inactive)
8 | CCCCN(CCCC)C(=O)C(=O)C(C(=O)c1ccc(OC)cc1)c1ccc(OC)cc1 (configuration not stated) | > 100 µM (inactive) | > 100 µM (inactive) | > 100 µM (inactive) | > 100 µM (inactive) |  | 27.4 µM (inactive) | > 100 µM (inactive) | > 100 µM (inactive) |  | > 100 µM (inactive) | > 100 µM (inactive) | > 100 µM (inactive) |  | > 100 µM (inactive) | 35.5 µM (inactive) | > 100 µM (inactive) |  |  |  | 
9 | c1ccc2c(c1)nc1n2CNCC1 | > 100 µM (inactive) | > 100 µM (inactive) | > 100 µM (inactive) | > 100 µM (inactive) |  | > 100 µM (inactive) | 94 µM (inactive) |  | 43.1 µM (inactive) | > 100 µM (inactive) | > 100 µM (inactive) | > 100 µM (inactive) | 29.7 µM (inactive) | > 100 µM (inactive) | 90.8 µM (inactive) |  | > 100 µM (inactive) | > 100 µM (inactive) | > 100 µM (inactive) | > 100 µM (inactive)
10 | COC1/C=C/C(C)C(C(C)C(OC)C(C)CCC(=O)C(C)C(CCC(=O)O)OC)OC(=O)/C=C/C=C(\C)CC(OC)CC2=CC(=O)O[C@@H](C(C)C(OC)CC(OC)/C=C/C(C)C(OC)C1)[C@H]2O (some centres not stated) | 0.578 µM (active) | 0.332 µM (active) | 0.74 µM (active) | 0.125 µM (active) |  | 0.372 µM (active) | 0.177 µM (active) |  | 1.37 µM (inactive) | 0.284 µM (active) | 0.859 µM (active) | 0.271 µM (active) | 0.637 µM (active) | 1.24 µM (inactive) | 0.583 µM (active) |  | 0.123 µM (active) | 0.661 µM (active) | 0.6 µM (active) | > 5 µM (inactive)
11 | C/C(=N/NC(=S)Nc1ccccc1C)c1ccccn1 | 0.0627 µM (active) | 0.0855 µM (active) | 0.0562 µM (active) | < 0.0196 µM (active) |  | 1.09 µM (active) | < 0.0182 µM (active) |  | 0.583 µM (active) | 0.14 µM (active) | 0.175 µM (active) | 2.65 µM (inactive) | 0.0229 µM (active) | < 0.0208 µM (active) | 0.682 µM (active) |  | 1.67 µM (inactive) | 3.14 µM (inactive) | 0.807 µM (active) | 0.0322 µM (active)
12 | CC(C)(C)C(=O)OCC1CCC(n2cnc3c(=O)[nH]c(N)nc32)O1 (configuration not stated) | > 100 µM (inactive) | > 100 µM (inactive) | > 100 µM (inactive) | > 100 µM (inactive) | > 100 µM (inactive) | > 100 µM (inactive) | > 100 µM (inactive) | > 100 µM (inactive) |  | > 100 µM (inactive) | > 100 µM (inactive) | > 100 µM (inactive) |  | > 100 µM (inactive) |  | > 100 µM (inactive) | > 100 µM (inactive) |  |  | 
13 | CNc1ccc([N+](=O)[O-])cc1C(=O)N1CCC[C@H]1CO | > 100 µM (inactive) | > 100 µM (inactive) | > 100 µM (inactive) | > 100 µM (inactive) |  | > 100 µM (inactive) | > 100 µM (inactive) |  | > 100 µM (inactive) | > 100 µM (inactive) | > 100 µM (inactive) | > 100 µM (inactive) | > 100 µM (inactive) | > 100 µM (inactive) | > 100 µM (inactive) |  | > 100 µM (inactive) | > 100 µM (inactive) | > 100 µM (inactive) | > 100 µM (inactive)
14 | CC1=C(Cl)C=CP(=O)(Oc2ccccc2)C1 (configuration not stated) |  | 38.8 µM (inactive) | > 100 µM (inactive) | 27.6 µM (inactive) | 27.5 µM (inactive) | > 100 µM (inactive) | > 100 µM (inactive) | > 100 µM (inactive) | 15.6 µM (inactive) | 29.1 µM (inactive) | > 100 µM (inactive) | 41.3 µM (inactive) |  | 71.6 µM (inactive) |  | 41.1 µM (inactive) |  |  |  | 
15 | O=C1/C(=C\c2cccc(Oc3ccccc3)c2)S(=O)(=O)C(c2ccccc2)N1c1cc(Cl)ccc1Cl (configuration not stated) | 16.1 µM (inactive) | 22.2 µM (inactive) | 18.8 µM (inactive) | 22.2 µM (inactive) |  | 16.9 µM (inactive) | 15.6 µM (inactive) |  | 18.3 µM (inactive) | 18.5 µM (inactive) | 14.2 µM (inactive) | 28.2 µM (inactive) | 6.31 µM (inactive) | 19.9 µM (inactive) | 15.5 µM (inactive) |  | 39.2 µM (inactive) | 18 µM (inactive) | 10.3 µM (inactive) | 22.6 µM (inactive)
16 | Fc1cc(-c2cc(-c3ccccc3)no2)c(Cl)cc1Cl | 15.5 µM (inactive) | 10.3 µM (inactive) | > 35.2 µM (inactive) | 11.3 µM (inactive) |  | 7.69 µM (inactive) | 12.7 µM (inactive) |  | 14.9 µM (inactive) | 19.4 µM (inactive) | 22.5 µM (inactive) | 23.6 µM (inactive) | 13.9 µM (inactive) | > 56.8 µM (inactive) | 7.11 µM (inactive) |  | > 33 µM (inactive) | 18.5 µM (inactive) | 16.1 µM (inactive) | 54.8 µM (inactive)
17 | Cc1cn(C2CC(O)C(Cn3nncc3Cn3cnc4c(N)ncnc43)O2)c(=O)[nH]c1=O (configuration not stated) | > 100 µM (inactive) | > 100 µM (inactive) | > 100 µM (inactive) | > 100 µM (inactive) |  | > 100 µM (inactive) | > 100 µM (inactive) |  | > 100 µM (inactive) | > 100 µM (inactive) | > 100 µM (inactive) | > 100 µM (inactive) | > 100 µM (inactive) | > 100 µM (inactive) | > 100 µM (inactive) |  | > 100 µM (inactive) | > 100 µM (inactive) | > 100 µM (inactive) | > 100 µM (inactive)
